# Tested on: NF-κB signaling pathway
# Test: NF-κB-dependent luciferase reporter (5×κB-luciferase/pTK-Renilla), TNF-α-induced, HeLa cells
# Format: cell-based
# Conditions: RA-V 6 h, then 10 ng/mL TNF-α 2 h, three independent experiments
# Method: Fig. 1 RA-V inhibits TNF-α- and LPS-induced activation of NF-κB. a Chemical structure of RA-V. b RA-V inhibited the NF-κB signaling pathway in a dose-dependent manner. HEK293T or HeLa cells were transfected with the 5 × κB-luciferase and pTK-Renilla reporters. Twenty-four hours after transfection, the cells were incubated with various concentrations of RA-V for 6 h, and then treated with 10 ng/mL TNF-α for 2 h before the luciferase activity assay and MTT assay. c RA-V reduced TNF-α-induced expression of NF-κB target genes. HEK293T or HeLa cells were treated with various concentrations of RA-V for 24 h and stimulated with 10 ng/mL TNF-α for 2 h. The expression of the NF-κB target genes, IL-8, MCP-1, and E-selectin was measured by quantitative RT-PCR and normalized to GADPH expression. d RA-V inhibited TNF-α-induced p65 phosphorylation, IκBα phosphorylation and IκBα degradation. HEK293T or HeLa cells were incubated with various concentrations of RA-V for 24 h and treated with 10 ng/mL TNF-α for 10 min. The cell lysates were prepared and subjected to western blot analysis with the indicated antibodies. e RA-V inhibited TNF-α-induced IL-8 production. […] The expression of IL-6 was measured. h RA-V inhibited LPS-induced p65 phosphorylation, IκBα phosphorylation. […] The protein expression was measured. i RA-V inhibited LPS-induced IL-6 production. […] The expression of IL-6 was measured. […]
substance,measurement,value
RA-V,IC50,171 nM
